± gives the expanded uncertainty stated by the source.

The data set is described as follows: activity coefficient (dimensionless); of the first substance listed, at infinite dilution; xn = mol fraction of the nth substance listed. The settings on record: Liquid, x1 = 0.

For the compound `Cc1ccccc1C` [1,2-dimethylbenzene] + CCCCCCCCn1cc[n+](C)c1.O=S(=O)([N-]S(=O)(=O)C(F)(F)F)C(F)(F)F, the activity coefficient reads like this: (303.15 K, Chromatography) 0.98 ± 0.03; (313.15 K, Chromatography) 1.03 ± 0.03; (323.15 K, Chromatography) 1.03 ± 0.03; (333.15 K, Chromatography) 1.05 ± 0.03.
On to `Cc1cccc(C)c1` [1,3-dimethylbenzene] + CCCCCCCCn1cc[n+](C)c1.O=S(=O)([N-]S(=O)(=O)C(F)(F)F)C(F)(F)F, for which the activity coefficient by setting is: (303.15 K, Chromatography) 1.13 ± 0.03; (313.15 K, Chromatography) 1.15 ± 0.04; (323.15 K, Chromatography) 1.17 ± 0.04; (333.15 K, Chromatography) 1.19 ± 0.04.
On the same counts, the results for `Cc1cccc(C)c1` [1,3-dimethylbenzene] + CCCCCC[n+]1ccn(C)c1.O=S(=O)([N-]S(=O)(=O)C(F)(F)F)C(F)(F)F are 1.4 ± 0.05, 1.41 ± 0.05, 1.46 ± 0.06 and 1.5 ± 0.06.
`Cc1ccc(C)cc1` [1,4-dimethylbenzene] + CCCCCCCCn1cc[n+](C)c1.O=S(=O)([N-]S(=O)(=O)C(F)(F)F)C(F)(F)F: the activity coefficient was 1.11 ± 0.03 (303.15 K, Chromatography); 1.13 ± 0.03 (313.15 K, Chromatography); 1.16 ± 0.04 (323.15 K, Chromatography); 1.16 ± 0.04 (333.15 K, Chromatography).
`Cc1ccc(C)cc1` [1,4-dimethylbenzene] + CCCCCC[n+]1ccn(C)c1.O=S(=O)([N-]S(=O)(=O)C(F)(F)F)C(F)(F)F: the activity coefficient (303.15 K, Chromatography) is 1.42 ± 0.05; the activity coefficient (313.15 K, Chromatography) came out at 1.42 ± 0.05; the activity coefficient (323.15 K, Chromatography) amounted to 1.48 ± 0.06; the activity coefficient (333.15 K, Chromatography) was 1.51 ± 0.06.
For `C=CCCCCC` [1-heptene] + CCCCCCCCn1cc[n+](C)c1.O=S(=O)([N-]S(=O)(=O)C(F)(F)F)C(F)(F)F, the activity coefficient runs as follows: (303.15 K, Chromatography) 4.29 ± 0.2; (303.15 K, dilutor) 4.33 ± 0.22; (313.15 K, Chromatography) 4.23 ± 0.19; (313.15 K, dilutor) 4.26 ± 0.21; (323.15 K, Chromatography) 4.13 ± 0.19; (323.15 K, dilutor) 4.2 ± 0.21. Also, the activity coefficient (333.15 K, Chromatography) came out at 4.13 ± 0.19 and the activity coefficient (333.15 K, dilutor) is 4.15 ± 0.21.
As to `C=CCCCCC` [1-heptene] + CCCCCC[n+]1ccn(C)c1.O=S(=O)([N-]S(=O)(=O)C(F)(F)F)C(F)(F)F, the activity coefficient by setting is: (303.15 K, Chromatography) 6.46 ± 0.3; (303.15 K, dilutor) 6.28 ± 0.31; (313.15 K, Chromatography) 6.28 ± 0.29; (313.15 K, dilutor) 6.12 ± 0.31; (323.15 K, Chromatography) 6.09 ± 0.28; (323.15 K, dilutor) 5.96 ± 0.3. The activity coefficient is 5.96 ± 0.27 (333.15 K, Chromatography) and 5.86 ± 0.29 (333.15 K, dilutor).
Consider `C=CCCCCC` [1-heptene] + CCCC[N+]1(C)CCCC1.O=S(=O)([N-]S(=O)(=O)C(F)(F)F)C(F)(F)F, for which the activity coefficient runs as follows: (303.15 K, dilutor) 10.4 ± 0.5; (313.15 K, dilutor) 9.97 ± 0.5; (323.15 K, dilutor) 9.69 ± 0.48; (333.15 K, dilutor) 9.37 ± 0.47.
For the compound `C=CCCC` [1-pentene] + CCCCCCCCn1cc[n+](C)c1.O=S(=O)([N-]S(=O)(=O)C(F)(F)F)C(F)(F)F, the activity coefficient (303.15 K, Chromatography) is 2.52 ± 0.11; the activity coefficient (303.15 K, dilutor) came to 2.54 ± 0.13; the activity coefficient (313.15 K, Chromatography) was found to be 2.53 ± 0.11; the activity coefficient (313.15 K, dilutor) amounted to 2.53 ± 0.13; the activity coefficient (323.15 K, Chromatography) stood at 2.46 ± 0.11; the activity coefficient (323.15 K, dilutor) is 2.53 ± 0.13. For the same compound, the activity coefficient was 2.45 ± 0.11 (333.15 K, Chromatography) and 2.52 ± 0.13 (333.15 K, dilutor).
As to `C=CCCC` [1-pentene] + CCCCCC[n+]1ccn(C)c1.O=S(=O)([N-]S(=O)(=O)C(F)(F)F)C(F)(F)F, the activity coefficient is, setting by setting: (303.15 K, Chromatography) 3.47 ± 0.16; (303.15 K, dilutor) 3.36 ± 0.17; (313.15 K, Chromatography) 3.4 ± 0.15; (313.15 K, dilutor) 3.33 ± 0.17; (323.15 K, Chromatography) 3.3 ± 0.15; (323.15 K, dilutor) 3.3 ± 0.17. The activity coefficient reads like this: (333.15 K, Chromatography) 3.31 ± 0.15; (333.15 K, dilutor) 3.23 ± 0.16.
As for `C=CCCC` [1-pentene] + CCCC[N+]1(C)CCCC1.O=S(=O)([N-]S(=O)(=O)C(F)(F)F)C(F)(F)F, the activity coefficient (303.15 K, dilutor) came out at 4.95 ± 0.25; the activity coefficient (313.15 K, dilutor) turned out to be 4.91 ± 0.25; the activity coefficient (323.15 K, dilutor) turned out to be 4.81 ± 0.24; the activity coefficient (333.15 K, dilutor) was 4.8 ± 0.24.
Turning to `CCOC(C)(C)C` [2-ethoxy-2-methylpropane] + CCCCCC[n+]1ccn(C)c1.O=S(=O)([N-]S(=O)(=O)C(F)(F)F)C(F)(F)F, the activity coefficient by setting is: (303.15 K, Chromatography) 2.69 ± 0.12; (313.15 K, Chromatography) 2.74 ± 0.12; (323.15 K, Chromatography) 2.76 ± 0.13; (333.15 K, Chromatography) 2.82 ± 0.13.
For the compound `CCC(C)(C)OC` [2-methoxy-2-methylbutane] + CCCCCC[n+]1ccn(C)c1.O=S(=O)([N-]S(=O)(=O)C(F)(F)F)C(F)(F)F, the activity coefficient runs as follows: (303.15 K, Chromatography) 1.83 ± 0.08; (313.15 K, Chromatography) 1.9 ± 0.08; (323.15 K, Chromatography) 1.94 ± 0.09; (333.15 K, Chromatography) 2.02 ± 0.09.
In the case of `CC(C)=O` [acetone] + CCCCCC[n+]1ccn(C)c1.O=S(=O)([N-]S(=O)(=O)C(F)(F)F)C(F)(F)F, the activity coefficient runs as follows: (303.15 K, dilutor) 0.31 ± 0.02; (313.15 K, dilutor) 0.32 ± 0.02; (323.15 K, dilutor) 0.34 ± 0.02; (333.15 K, dilutor) 0.34 ± 0.02.
Turning to `c1ccccc1` [benzene] + CCCCCCCCn1cc[n+](C)c1.O=S(=O)([N-]S(=O)(=O)C(F)(F)F)C(F)(F)F, the activity coefficient (303.15 K, Chromatography) was 0.63 ± 0.03; the activity coefficient (313.15 K, Chromatography) was 0.65 ± 0.03; the activity coefficient (323.15 K, Chromatography) is 0.65 ± 0.03; the activity coefficient (333.15 K, Chromatography) came out at 0.66 ± 0.03.
As to `c1ccccc1` [benzene] + CCCCCC[n+]1ccn(C)c1.O=S(=O)([N-]S(=O)(=O)C(F)(F)F)C(F)(F)F, the activity coefficient runs as follows: (303.15 K, Chromatography) 0.75 ± 0.03; (313.15 K, Chromatography) 0.76 ± 0.03; (323.15 K, Chromatography) 0.78 ± 0.03; (333.15 K, Chromatography) 0.79 ± 0.03.
For the compound `c1ccccc1` [benzene] + CCCC[N+]1(C)CCCC1.O=S(=O)([N-]S(=O)(=O)C(F)(F)F)C(F)(F)F, the activity coefficient is, setting by setting: (303.15 K, dilutor) 0.84 ± 0.04; (313.15 K, dilutor) 0.86 ± 0.04; (323.15 K, dilutor) 0.88 ± 0.04; (333.15 K, dilutor) 0.89 ± 0.04.
As to `CCC(C)=O` [butanone] + CCCCCC[n+]1ccn(C)c1.O=S(=O)([N-]S(=O)(=O)C(F)(F)F)C(F)(F)F, the activity coefficient is, setting by setting: (303.15 K, Chromatography) 0.41 ± 0.03; (313.15 K, Chromatography) 0.42 ± 0.03; (323.15 K, Chromatography) 0.44 ± 0.03; (333.15 K, Chromatography) 0.44 ± 0.03.
Take `CCC(C)=O` [butanone] + CCCC[N+]1(C)CCCC1.O=S(=O)([N-]S(=O)(=O)C(F)(F)F)C(F)(F)F: the activity coefficient is 0.52 ± 0.03 (303.15 K, dilutor); 0.53 ± 0.03 (313.15 K, dilutor); 0.55 ± 0.03 (323.15 K, dilutor); 0.56 ± 0.03 (333.15 K, dilutor).
As for `C1CCCCC1` [cyclohexane] + CCCCCCCCn1cc[n+](C)c1.O=S(=O)([N-]S(=O)(=O)C(F)(F)F)C(F)(F)F, the activity coefficient is 3.64 ± 0.17 (303.15 K, Chromatography); 3.67 ± 0.18 (303.15 K, dilutor); 3.52 ± 0.16 (313.15 K, Chromatography); 3.59 ± 0.18 (313.15 K, dilutor); 3.36 ± 0.15 (323.15 K, Chromatography); 3.48 ± 0.17 (323.15 K, dilutor). The activity coefficient runs as follows: (333.15 K, Chromatography) 3.29 ± 0.15; (333.15 K, dilutor) 3.39 ± 0.17.
As for `C1CCCCC1` [cyclohexane] + CCCCCC[n+]1ccn(C)c1.O=S(=O)([N-]S(=O)(=O)C(F)(F)F)C(F)(F)F, the activity coefficient is, setting by setting: (303.15 K, Chromatography) 5.48 ± 0.25; (303.15 K, dilutor) 5.29 ± 0.26; (313.15 K, Chromatography) 5.15 ± 0.24; (313.15 K, dilutor) 5.01 ± 0.25; (323.15 K, Chromatography) 4.9 ± 0.22; (323.15 K, dilutor) 4.78 ± 0.24. The activity coefficient is, setting by setting: (333.15 K, Chromatography) 4.75 ± 0.22; (333.15 K, dilutor) 4.68 ± 0.23.
As to `C1CCCCC1` [cyclohexane] + CCCC[N+]1(C)CCCC1.O=S(=O)([N-]S(=O)(=O)C(F)(F)F)C(F)(F)F, the activity coefficient was 8.75 ± 0.44 (303.15 K, dilutor); 8.43 ± 0.42 (313.15 K, dilutor); 7.91 ± 0.4 (323.15 K, dilutor); 7.42 ± 0.37 (333.15 K, dilutor).
Turning to `C1=CCCCC1` [cyclohexene] + CCCCCCCCn1cc[n+](C)c1.O=S(=O)([N-]S(=O)(=O)C(F)(F)F)C(F)(F)F, the activity coefficient (303.15 K, Chromatography) amounted to 2.41 ± 0.11; the activity coefficient (303.15 K, dilutor) was found to be 2.44 ± 0.12; the activity coefficient (313.15 K, Chromatography) was found to be 2.38 ± 0.11; the activity coefficient (313.15 K, dilutor) is 2.38 ± 0.12; the activity coefficient (323.15 K, Chromatography) amounted to 2.31 ± 0.1; the activity coefficient (323.15 K, dilutor) was 2.33 ± 0.12. The activity coefficient (333.15 K, Chromatography) worked out at 2.29 ± 0.1 and the activity coefficient (333.15 K, dilutor) was determined as 2.28 ± 0.11.
For `C1=CCCCC1` [cyclohexene] + CCCCCC[n+]1ccn(C)c1.O=S(=O)([N-]S(=O)(=O)C(F)(F)F)C(F)(F)F, the activity coefficient (303.15 K, Chromatography) worked out at 3.42 ± 0.16; the activity coefficient (303.15 K, dilutor) came to 3.2 ± 0.16; the activity coefficient (313.15 K, Chromatography) is 3.28 ± 0.15; the activity coefficient (313.15 K, dilutor) is 3.15 ± 0.16; the activity coefficient (323.15 K, Chromatography) turned out to be 3.18 ± 0.14; the activity coefficient (323.15 K, dilutor) was found to be 3.07 ± 0.15. Besides, the activity coefficient amounted to 3.14 ± 0.14 (333.15 K, Chromatography) and 3.01 ± 0.15 (333.15 K, dilutor).
`C1CCCC1` [cyclopentane] + CCCCCCCCn1cc[n+](C)c1.O=S(=O)([N-]S(=O)(=O)C(F)(F)F)C(F)(F)F: the activity coefficient reads like this: (303.15 K, dilutor) 2.68 ± 0.13; (313.15 K, dilutor) 2.64 ± 0.13; (323.15 K, dilutor) 2.59 ± 0.13; (333.15 K, dilutor) 2.56 ± 0.13.
The like results for `C1CCCC1` [cyclopentane] + CCCCCC[n+]1ccn(C)c1.O=S(=O)([N-]S(=O)(=O)C(F)(F)F)C(F)(F)F were, in that order, 3.64 ± 0.18, 3.48 ± 0.17, 3.27 ± 0.16 and 3.26 ± 0.16.
As to `C1CCCC1` [cyclopentane] + CCCC[N+]1(C)CCCC1.O=S(=O)([N-]S(=O)(=O)C(F)(F)F)C(F)(F)F, the activity coefficient turned out to be 6.14 ± 0.31 (303.15 K, dilutor); 5.7 ± 0.29 (313.15 K, dilutor); 5.41 ± 0.27 (323.15 K, dilutor); 5.12 ± 0.26 (333.15 K, dilutor).
On the same counts, the results for `C1=CCCC1` [cyclopentene] + CCCCCCCCn1cc[n+](C)c1.O=S(=O)([N-]S(=O)(=O)C(F)(F)F)C(F)(F)F are 1.86 ± 0.09, 1.84 ± 0.09, 1.81 ± 0.09 and 1.78 ± 0.09.

Source of the values: the NIST ThermoML archive (doi:10.1016/j.jct.2005.04.010).
